Broadly, the IC50 is the concentration at which inhibition is half-maximal. As a reminder, the inhibition is the percentage by which the read-out fell short of the control. By inhibition in vivo is commonly meant the share of the control response that was lost under treatment.

Experiment [1] addresses T1, recombinant human LTA4 hydrolase (rhLTA4H) (Homo sapiens, UniProt P09960).
T1 construct: made in house; host or cells: Spodoptera frugiperda (Sf-9) cells, recombinant baculovirus (pFastBac1)
T1 sequence (P09960 1-611): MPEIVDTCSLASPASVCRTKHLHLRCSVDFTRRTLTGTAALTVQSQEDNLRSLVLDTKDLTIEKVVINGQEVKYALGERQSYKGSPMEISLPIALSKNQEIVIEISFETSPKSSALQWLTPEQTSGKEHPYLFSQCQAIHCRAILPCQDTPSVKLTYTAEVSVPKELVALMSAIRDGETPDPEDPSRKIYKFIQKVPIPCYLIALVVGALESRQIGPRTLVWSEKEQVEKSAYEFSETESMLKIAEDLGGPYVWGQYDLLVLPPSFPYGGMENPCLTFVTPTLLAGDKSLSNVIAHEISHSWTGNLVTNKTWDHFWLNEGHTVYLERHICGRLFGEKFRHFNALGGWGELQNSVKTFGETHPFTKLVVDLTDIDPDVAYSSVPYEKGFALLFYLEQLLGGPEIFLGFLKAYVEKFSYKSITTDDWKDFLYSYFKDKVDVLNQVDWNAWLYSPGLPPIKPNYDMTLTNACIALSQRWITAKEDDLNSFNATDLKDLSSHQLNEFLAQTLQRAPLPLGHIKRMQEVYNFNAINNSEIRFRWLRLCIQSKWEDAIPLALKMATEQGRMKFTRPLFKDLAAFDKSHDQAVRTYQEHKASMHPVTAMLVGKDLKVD
The experiment in a line: Recombinant human LTA4 hydrolase assay for LTA4 hydrolase inhibitor activity. It is filed as biochemical. The conditions noted are these: rhLTA4H, LTA4 substrate, LTB4 by immunoassay; single determination or average; read-out: IC50. In short, it runs like this:
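Recombinant human LTA4H from baculovirus-infected Sf-9 cells (10 ng) pre-incubated 10 min at rt with compound (10% DMSO in dilutions), then reacted with free-acid LTA4 for 30 min at rt. LTB4 measured by ELISA; IC50 by nonlinear regression. Values are single determinations or averages.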

The test system of experiment [2] is LTB4 production by calcium ionophore-stimulated murine blood. The experiment in a line: LTB4 production by calcium ionophore-stimulated murine blood for LTA4H inhibitor activity. The conditions noted are these: Mus musculus; murine blood diluted 1 in 15, calcium ionophore A23187, LTB4 by immunoassay; read-out: IC50. It is filed as cell-based, CD-1 mice. In short, it runs like this: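 Heparinized CD-1 mouse blood pre-incubated with compound 15 min at 37° C, then stimulated with calcium ionophore A23187 (7 μg/mL final) for 30 min. LTB4 in supernatant measured by enzyme immunoassay; values are single or averaged determinations, with SD for n≥3.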

Experiment [3] has as its system ex vivo stimulated LTB4 production. The experiment can be described thus: Murine arachidonic acid-induced inflammation model: ex vivo stimulated LTB4 production (% Inh. LTB4). The conditions noted are these: Mus musculus; female Balb/c mice, 30 mg/kg oral gavage; blood taken 3 h after arachidonic acid, ex vivo A23187 stimulation; number of determinations in parentheses. How it is done:
(§1) Assay 4: Murine Arachidonic Acid-Induced Inflammation Model
(§2) LTA4H inhibitor compounds of the present invention were dissolved in 20% cyclodextran/H2O at a concentration of 3 mg/mL. The solutions were administered by oral gavage to female Balb/c mice weighing approximately 20 grams each (0.2 mL per mouse, 30 mg of LTA4H inhibitor compound per kg). Sixty minutes after being administered an LTA4 inhibitor, each mouse received topical application of 20 μL of arachidonic acid (100 mg/mL in acetone) to the left ear and 20 μL of acetone only to the right ear. After 3 h, the mice were sacrificed, blood was withdrawn in heparinized syringes, and 8 mm ear biopsies were taken. Ear biopsies were weighed to determine edema and then frozen at −80° C. until needed for determination of neutrophil influx.
One hundred-microliter aliquots of heparinized blood were added to wells of a microtiter plate, along with equal volumes of RPMI-1640 medium, and calcium ionophore A23187 was added to each sample well (final concentration=[…]). The microtiter plate contents were incubated for 30 min at 37° C. in a humidified incubator. The reaction was terminated by centrifugation (833×g, 10 min at 4° C.). Supernatants were analyzed for LTB4 by a commercially available enzyme-linked immunoassay (Cayman Chemical Co.) in accordance with the manufacturer's instructions. The percent inhibition of ex vivo stimulated LTB4 production (% Inh. LTB4) was determined by comparison to animals treated identically except that the solution administered by oral gavage was devoid of inhibitor compound.
(§3) The number of determinations is indicated in parentheses following each value

The next experiment has as its system neutrophil influx. The experiment in a line: Murine arachidonic acid-induced inflammation model: neutrophil influx in ear, myeloperoxidase activity (% Inh. MPO). The settings on record: Mus musculus, female Balb/c mice, 30 mg/kg oral gavage, ear biopsy 3 h after topical arachidonic acid, number of determinations in parentheses. It is filed as in vivo. How it is done: as §1, §2
Neutrophil influx was quantified by measuring the activity of myeloperoxidase (MPO), a neutrophil-specific enzyme. The ear biopsies were homogenized in 0.5 mL extraction buffer (0.3 M sucrose, 0.22% (w/v) hexadecyl trimethyl ammonium bromide (CTAB), and 2.5 mM citrate prepared from 0.5 M citrate stock solution (pH 5.0)), in a Fast-Prep-24 (MP™) (40 seconds at 6 mps). Debris was removed by centrifugation at 14000×g for 10 min. Aliquots of 10 μL of the resulting supernatant were added to wells of a microtiter plate, along with 90-μL aliquots of dilution buffer (10 mM citrate, 0.22% CTAB), followed by addition of 20 μL TMB liquid substrate system (Sigma Chemical Co.) to each sample well. The microtiter plate contents were held at room temperature until the sample with the highest concentration of MPO reached an absorbance value of 0.4 at 650 nm. The reaction was stopped by addition of 50 μL 1 M H2SO4 to each sample well, and the myeloperoxidase activity in each sample was determined from the absorbance at 405 nm. The background value from the right ear, treated only with acetone, was subtracted from that for the left ear, treated with arachidonic acid in acetone, for each animal. The percent inhibition of neutrophil influx (% Inh. MPO) by compounds of the invention was determined by comparison to animals treated identically, except that the solution administered by oral gavage was devoid of inhibitor compound.
as §3

With `CC(=O)N1C[C@H]2C[C@@H]1CN2CCc1ccc(Oc2nc3ncccc3s2)cc1` [Example 79, 2-(4-{2-[(1R,4R)-5-Acetyl-2,5-diazabicyclo[2.2.1]hept-2-yl]ethyl}phenoxy)[1,3]thiazolo[4,5-b]pyridine], the IC50 in experiment [1] was 6 nM; in experiment [2] it was 20 nM. In addition, the inhibition at 30 mg/kg in experiment [3] was found to be 86.7%. For the same compound, the inhibition in vivo at 30 mg/kg with neutrophil influx was 82.2%.
Turning to `O=C1CCCN1C1CCN(CCc2ccc(Oc3nc4ncccc4s3)cc2)CC1` [Example 46, 1-(1-{2-[4-([1,3]Thiazolo[4,5-b]pyridin-2-yloxy)phenyl]ethyl}piperidin-4-yl)pyrrolidin-2-one], the values for the IC50 in experiment [1] and in experiment [2] were 13 nM and 130 nM, respectively. For the same compound, in experiment [3], the inhibition at 30 mg/kg came to 86.5%. In addition, in the experiment with neutrophil influx, the inhibition in vivo at 30 mg/kg is 75.3%.
Taken in the same sequence, the figures for `CC(=O)N[C@@H]1C[C@H]2CC[C@@H](C1)N2CCOc1ccc(Oc2nc3ncccc3s2)cc1` [Example 17, meso-N-[(3-exo)-8-{2-[4-([1,3]Thiazolo[4,5-b]pyridin-2-yloxy)phenoxy]ethyl}-8-azabicyclo[3.2.1]oct-3-yl]acetamide] were 2 nM, 25 nM, 81.5% and 63.4%.
On the same counts, the results for `CC(=O)N1C[C@@H]2C[C@H]1CN2Cc1ccc(Oc2nc3nccnc3s2)cc1` [Example 120, 2-(4-{[(1S,4S)-5-Acetyl-2,5-diazabicyclo[2.2.1]hept-2-yl]methyl}phenoxy)[1,3]thiazolo[4,5-b]pyrazine] are 110 ± 37 nM, 150 nM, 57.8% and 48.1%.
On the same counts, the results for `c1cnc2nc(Oc3ccc(CCN4CCCCC4)cc3)sc2c1` [Example 60, 2-[4-(2-Piperidin-1-ylethyl)phenoxy][1,3]thiazolo[4,5-b]pyridine] are 3 nM, 15 nM, 69.5% and 35.8%.
On to `NC(=O)N1C[C@@H]2C[C@H]1CN2CCOc1ccc(Oc2nc3ncccc3s2)cc1` [Example 15, (1S,4S)-5-{2-[4-([1,3]Thiazolo[4,5-b]pyridin-2-yloxy)phenoxy]ethyl}-2,5-diazabicyclo[2.2.1]heptane-2-carboxamide], for which the IC50 in experiment [1] amounted to 29 ± 5.2 nM; in experiment [2], 310 nM. Further, in experiment [3], the inhibition at 30 mg/kg worked out at 61.9%. For the same compound, the inhibition in vivo at 30 mg/kg in the experiment on neutrophil influx came to 47.7%.
As for `CC(=O)N1C[C@@H]2CC[C@H]1CN2Cc1ccc(Oc2nc3ncccc3s2)cc1` [Example 290, 2-(4-{[(1S,4S)-5-Acetyl-2,5-diazabicyclo[2.2.2]oct-2-yl]methyl}phenoxy)[1,3]thiazolo[4,5-b]pyridine], the results for the IC50 in experiment [1] and in experiment [2] were 6 nM and 5 nM, respectively. The inhibition at 30 mg/kg in experiment [3] stood at 82.9%. Also, the inhibition in vivo at 30 mg/kg with neutrophil influx is 86.9%.
On the same counts, the results for `c1cnc2nc(Oc3ccc(CN4CCOCC4)cc3)sc2c1` [Example 86, 2-[4-(Morpholin-4-ylmethyl)phenoxy][1,3]thiazolo[4,5-b]pyridine] are 12 nM, 60 nM, 70.8% and 51.5%.
Taken in the same sequence, the figures for `NC(=O)N1C[C@H]2CC[C@@H](C1)N2CCc1ccc(Oc2nc3ncccc3s2)cc1` [Example 54, meso-8-{2-[4-([1,3]Thiazolo[4,5-b]pyridin-2-yloxy)phenyl]ethyl}-3,8-diazabicyclo[3.2.1]octane-3-carboxamide] were 9.6 nM, 75 ± 71 nM, 81.2% and 87.7%.
On the same counts, the results for `CC(=O)N[C@@H]1C[C@H]2CC[C@@H](C1)N2CCc1ccc(Oc2nc3ncccc3s2)cc1` [Example 49, meso-N-[(3-exo)-8-{2-[4-([1,3]Thiazolo[4,5-b]pyridin-2-yloxy)phenyl]ethyl}-8-azabicyclo[3.2.1]oct-3-yl]acetamide] are 0.7 nM, 76 nM, 83% and 66%.
As to `CC(=O)N[C@H]1C[C@H]2CC[C@@H](C1)N2CCc1ccc(Oc2nc3cccnc3s2)cc1` [Example 52, meso-N-[(3-endo)-8-{2-[4-([1,3]Thiazolo[5,4-b]pyridin-2-yloxy)phenyl]ethyl}-8-azabicyclo[3.2.1]oct-3-yl]acetamide], the IC50 in experiment [1] was 1 nM; in experiment [2], 13 nM. Besides, in experiment [3], the inhibition at 30 mg/kg is 78.3%. For the same compound, in the experiment with neutrophil influx, the inhibition in vivo at 30 mg/kg was found to be 60.2%.
On the same counts, the results for `NC(=O)C1CCN(Cc2ccc(Oc3nc4nccnc4s3)cc2)CC1` [Example 285, 1-[4-([1,3]Thiazolo[4,5-b]pyrazin-2-yloxy)benzyl]piperidine-4-carboxamide] are 94 nM, 300 nM, 19.7% and 12.3%.
Taken in the same sequence, the figures for `CC(C)(O)C1CCN(Cc2ccc(Oc3nc4ncccc4s3)cc2)CC1` [Example 89, 2-{1-[4-([1,3]Thiazolo[4,5-b]pyridin-2-yloxy)benzyl]piperidin-4-yl}propan-2-ol] were 42 nM, 110 nM, 79.5% and 79.1%.
With `OC1(c2ccccc2)CCN(CCOc2ccc(Oc3nc4ncccc4s3)cc2)CC1` [Example 27, 4-Phenyl-1-{2-[4-([1,3]thiazolo[4,5-b]pyridin-2-yloxy)phenoxy]ethyl}piperidin-4-ol], the IC50 in experiment [1] was 32 nM; in experiment [2], 160 nM. For the same compound, in experiment [3], the inhibition at 30 mg/kg was 78.2%. For the same compound, the inhibition in vivo at 30 mg/kg in the experiment on neutrophil influx was 83.7%.
Taken in the same sequence, the figures for `CC(=O)N1C[C@@H]2C[C@H]1CN2Cc1ccc(Oc2nc3ncc(Cl)cc3s2)cc1` [Example 122, 2-(4-{[(1S,4S)-5-Acetyl-2,5-diazabicyclo[2.2.1]hept-2-yl]methyl}phenoxy)-6-chloro[1,3]thiazolo[4,5-b]pyridine] were 48 nM, 270 nM, 72% and 66.9%.

Source of the values: patent US20110190503A1, “Thiazolopyridin-2-yloxy-phenyl and thiazolopyrazin-2-yloxy-phenyl amines as modulators of leukotriene A4 hydrolase” (Janssen Pharmaceutical NV, priority 2008, published 2011).
